Assay results taken from ChEMBL document CHEMBL3425422, “Discovery of a potent microtubule-targeting agent: Synthesis and biological evaluation of water-soluble amino acid prodrug of combretastatin A-4 derivatives” (Bioorg Med Chem Lett, 2015).
The source made the active and inactive calls. The calls are words filed in the database; no cut-off is given here.

Experiments:
[1] = Antitumor activity against human H460 cells xenografted in BALB/C mouse assessed as inhibition ratio at 20 mg/kg, ip qd relative to control; assay type: functional; conditions: NCI-H460, ip, route intraperitoneal
[2] = Cytotoxicity against human SKOV3 cells assessed as cell viability after 48 hrs by MTT assay; assay type: functional, cell-based; conditions: SK-OV-3, 48 h
[3] = Aqueous solubility of the compound; assay type: physicochemical; conditions: water (aqueous)
Serum [4] = assay: Stability of the compound in Wistar rat serum assessed as prodrug degradation after 6 hrs; assay type: ADME, cell-free
[5] = Cytotoxicity against human H460 cells assessed as cell viability after 48 hrs by MTT assay; assay type: functional, cell-based; conditions: NCI-H460, 48 h
Serum [6] = assay: Stability of the compound in Wistar rat serum assessed as prodrug degradation after 24 hrs; assay type: ADME, cell-free
HepG2 [7] = assay: Cytotoxicity against human HepG2 cells assessed as cell viability after 48 hrs by MTT assay; assay type: functional, cell-based; conditions: HepG2, 48 h
[8] = Antitumor activity against human SKOV3 cells xenografted in BALB/C mouse assessed as inhibition ratio at 10 mg/kg, iv qd relative to control; assay type: functional; conditions: SK-OV-3
NCI-H460 = assay: Antitumor activity against human H460 cells xenografted in BALB/C mouse assessed as mouse survival at 20 mg/kg, ip qd relative to control; assay type: functional, organism-based; parameters: dose 20 mg/kg
SK-OV-3 [9] = assay: Antitumor activity against human SKOV3 cells xenografted in BALB/C mouse assessed as mouse survival at 10 mg/kg, iv qd relative to control; assay type: functional, organism-based; parameters: dose 10 mg/kg
Tubulin (Homo sapiens) [10] = molecular target: T1, Tubulin (Homo sapiens) (UniProt P68371+Q9H4B7+P0DPH7+P68366+Q13509+Q71U36+P04350+Q3ZCM7+P07437+P68363+Q9BQE3+Q6PEY2+Q13885+Q9BVA1+Q9BUF5); assay: Displacement of colchicine from tubulin (unknown origin) after 1 hr by fluorescence based competitive tubulin-binding assay; assay type: protein-complex assay
SK-OV-3 [11] = assay: Induction of apoptosis in human SKOV3 cells assessed as decrease in Bcl-2/Bax ratio at 100 to 1000 nM after 48 hrs by Western blot analysis; assay type: functional, cell-based
SK-OV-3 [12] = assay: Induction of cell cycle arrest in human SKOV3 cells assessed as accumulation at G1 phase at 100 nM after 24 hrs by FCM analysis (reference value: 60.84%); assay type: functional
SK-OV-3 [13] = assay: Induction of cell cycle arrest in human SKOV3 cells assessed as accumulation at G2/M phase at 100 nM after 24 hrs by FCM analysis (reference value: 15.30%); assay type: functional
SK-OV-3 [14] = assay: Induction of cell cycle arrest in human SKOV3 cells assessed as accumulation at G2 phase at 50 nM after 24 hrs by FCM analysis (reference value: 15.07%); assay type: functional
SK-OV-3 [15] = assay: Induction of cell cycle arrest in human SKOV3 cells assessed as accumulation at G1 phase at 50 nM after 24 hrs by FCM analysis (reference value: 60.84%); assay type: functional
SK-OV-3 [16] = assay: Induction of apoptosis in human SKOV3 cells assessed as PARP cleavage at 100 to 1000 nM after 48 hrs by Western blot analysis; assay type: functional, cell-based
SK-OV-3 [17] = assay: Induction of cell cycle arrest in human SKOV3 cells assessed as accumulation at G1 phase at 500 nM after 24 hrs by FCM analysis (reference value: 60.84%); assay type: functional
SK-OV-3 [18] = assay: Induction of cell cycle arrest in human SKOV3 cells assessed as accumulation at S phase at 100 nM after 24 hrs by FCM analysis (reference value: 24.09%); assay type: functional
SK-OV-3 [19] = assay: Antimitotic effect in human SKOV3 cells assessed as decrease in cdc2 level by Western blot analysis; assay type: functional, cell-based
Rattus norvegicus = assay: Prodrug conversion in rat assessed as 4-(4-ethoxyphenyl)-5-(3,4,5-trimethoxyphenyl)thiazol-2-amine in plasma measured as half life at 10 mg/kg, iv; assay type: ADME, organism-based; parameters: dose 10 mg/kg, route intravenous; conditions: in vivo
Tubulin (Homo sapiens) [20] = molecular target: T1, Tubulin (Homo sapiens); assay: Inhibition of tubulin polymerization in human SKOV3 cells assessed as increase in polymerized (insoluble) tubulin level at 0.1 to 1 uM after 24 hrs by Western blot analysis; assay type: cell-based; conditions: SK-OV-3
SK-OV-3 [21] = assay: Induction of cell cycle arrest in human SKOV3 cells assessed as accumulation at S phase at 50 nM after 24 hrs by FCM analysis (reference value: 24.09%); assay type: functional
Tubulin (Homo sapiens) [22] = molecular target: T1, Tubulin (Homo sapiens); assay: Inhibition of tubulin polymerization (unknown origin) at 5 to 10 uM by cell-free tubulin polymerization assay; assay type: protein-complex assay
SK-OV-3 [23] = assay: Induction of cell cycle arrest in human SKOV3 cells assessed as accumulation at G2 phase at 500 nM after 24 hrs by FCM analysis (reference value: 15.07%); assay type: functional
SK-OV-3 [24] = assay: Induction of cell cycle arrest in human SKOV3 cells assessed as accumulation at S phase at 500 nM after 24 hrs by FCM analysis (reference value: 24.09%); assay type: functional
SK-OV-3 [25] = assay: Antimitotic effect in human SKOV3 cells assessed as decrease in p-cdc2 level by Western blot analysis; assay type: functional, cell-based
HepG2 [26] = assay: Disruption of microtubule organization in human HepG2 cells at 500 nM after 12 hrs by DAPI staining-based fluorescence microscopy; assay type: functional, cell-based
SK-OV-3 [27] = assay: Antimitotic effect in human SKOV3 cells assessed as increase in cyclin B level by Western blot analysis; assay type: functional, cell-based
SK-OV-3 [28] = assay: Antimitotic effect in human SKOV3 cells assessed as decrease in cdc25 level by Western blot analysis; assay type: functional, cell-based
SK-OV-3 [29] = assay: Induction of apoptosis in human SKOV3 cells assessed as decrease in pro-caspase-3 protein level at 100 to 1000 nM after 48 hrs by Western blot analysis; assay type: functional, cell-based
SK-OV-3 [30] = assay: Induction of MAPK phosphorylation in human SKOV3 cells at 500 nM after 24 hrs by Western blot analysis; assay type: functional, cell-based
Tubulin (Homo sapiens) [31] = molecular target: T1, Tubulin (Homo sapiens); assay: Inhibition of tubulin polymerization in human SKOV3 cells assessed as increase in depolymerized (soluble) tubulin level at 0.1 to 1 uM after 24 hrs by Western blot analysis; assay type: cell-based; conditions: SK-OV-3
HepG2 [32] = assay: Disruption of microtubule organization in human HepG2 cells at 100 nM after 12 hrs by DAPI staining-based fluorescence microscopy; assay type: functional, cell-based
Tubulin (Homo sapiens) [33] = molecular target: T1, Tubulin (Homo sapiens); assay: Inhibition of tubulin polymerization (unknown origin) at 5 uM by cell-free tubulin polymerization assay; assay type: protein-complex assay
SK-OV-3 [34] = assay: Induction of apoptosis in human SKOV3 cells assessed as decrease in pro-caspase-9 protein level at 100 to 1000 nM after 48 hrs by Western blot analysis; assay type: functional, cell-based
SK-OV-3 [35] = assay: Induction of cell cycle arrest in human SKOV3 cells assessed as accumulation at G2/M phase after 24 hrs by FCM analysis; assay type: functional, cell-based
SK-OV-3 [36] = assay: Induction of cell cycle arrest in human SKOV3 cells assessed as accumulation at G2 phase at 100 nM after 24 hrs by FCM analysis (reference value: 15.07%); assay type: functional
SK-OV-3 [37] = assay: Induction of cell cycle arrest in human SKOV3 cells assessed as accumulation at G2/M phase at 500 nM after 24 hrs by FCM analysis (reference value: 15.30%); assay type: functional

## CCOc1ccc(-c2nc(NC(=O)[C@H](C)N)sc2-c2cc(OC)c(OC)c(OC)c2)cc1.Cl
[1]
  inhibition in vivo at 20 mg/kg: 56.6%
[2]
  IC50: 0.46 µM
[3]
  solubility: > 10000 µM
Serum [4]
  Drug degradation: 93.03%
[5]
  IC50: 0.21 µM
Serum [6]
  Drug degradation: 99.53%
HepG2 [7]
  IC50: 0.43 µM
[8]
  inhibition in vivo at 10 mg/kg: 28.7%
NCI-H460
  Activity: Active
SK-OV-3 [9]
  Activity: Active

## CCOc1ccc(-c2nc(NC(=O)[C@H](N)Cc3ccccc3)sc2-c2cc(OC)c(OC)c(OC)c2)cc1
[2]
  IC50: > 2 µM
[5]
  IC50: > 2 µM
HepG2 [7]
  IC50: 0.6 µM

## CCOc1ccc(-c2nc(NC(=O)[C@@H]3CCCN3)sc2-c2cc(OC)c(OC)c(OC)c2)cc1.Cl
[1]
  inhibition in vivo at 20 mg/kg: 39.4%
[2]
  IC50: 0.08 µM
[3]
  solubility: 458 µM
Serum [4]
  Drug degradation: 12.54%
[5]
  IC50: > 2 µM
Serum [6]
  Drug degradation: 16.55%
HepG2 [7]
  IC50: 0.11 µM
NCI-H460
  Activity: Active

## CCOc1ccc(-c2nc(N)sc2-c2cc(OC)c(OC)c(OC)c2)cc1
[2]
  IC50: 0.01 µM
[3]
  solubility: < 100 µM
[5]
  IC50: 0.2 µM
HepG2 [7]
  IC50: 0.21 µM

## CCOc1ccc(-c2nc(NC(=O)C(C)(C)N)sc2-c2cc(OC)c(OC)c(OC)c2)cc1
[2]
  IC50: 0.9 µM
[5]
  IC50: > 2 µM
HepG2 [7]
  IC50: 0.6 µM

## CCOc1ccc(-c2nc(NC(=O)[C@@H](N)Cc3ccccc3)sc2-c2cc(OC)c(OC)c(OC)c2)cc1.Cl
[1]
  inhibition in vivo at 20 mg/kg: 46.1%
[2]
  IC50: 0.1 µM
[3]
  solubility: 436 µM
Serum [4]
  Drug degradation: 45.85%
[5]
  IC50: > 2 µM
Serum [6]
  Drug degradation: 70.21%
HepG2 [7]
  IC50: 0.09 µM
NCI-H460
  Activity: Active

## CCOc1ccc(-c2nc(NC(=O)[C@@H](N)C(C)C)sc2-c2cc(OC)c(OC)c(OC)c2)cc1.Cl
Tubulin (Homo sapiens) [10]
  inhibition: Dose-dependent effect
SK-OV-3 [11]
  Activity: Active
SK-OV-3 [12]
  Activity: 43.5%
SK-OV-3 [13]
  Activity: 41.4%
SK-OV-3 [14]
  Activity: 10.22%
SK-OV-3 [15]
  Activity: 55.67%
[1]
  inhibition in vivo at 20 mg/kg: 55%
SK-OV-3 [16]
  Activity: Active
[2]
  IC50: 0.42 µM
[3]
  solubility: > 10000 µM
SK-OV-3 [17]
  Activity: 1.22%
SK-OV-3 [18]
  Activity: 15.49%
SK-OV-3 [19]
  inhibition: Active
Rattus norvegicus
  t1/2: 2.93 h
Tubulin (Homo sapiens) [20]
  inhibition: Active
SK-OV-3 [21]
  Activity: 34.11%
Tubulin (Homo sapiens) [22]
  inhibition: Active
SK-OV-3 [23]
  Activity: 94.51%
SK-OV-3 [24]
  Activity: 3.97%
SK-OV-3 [25]
  inhibition: Active
HepG2 [26]
  Activity: Active
SK-OV-3 [27]
  Activity: Active
SK-OV-3 [28]
  inhibition: Active
SK-OV-3 [29]
  Activity: Active
SK-OV-3 [30]
  Activity: Active
Tubulin (Homo sapiens) [31]
  inhibition: Active
Serum [4]
  Drug degradation: 12.77%
[5]
  IC50: 0.2 µM
HepG2 [32]
  Activity: Active
Serum [6]
  Drug degradation: 38.23%
HepG2 [7]
  IC50: 0.39 µM
Tubulin (Homo sapiens) [33]
  inhibition: Active
SK-OV-3 [34]
  Activity: Active
[8]
  inhibition in vivo at 10 mg/kg: 43.1%
SK-OV-3 [35]
  Activity: Dose-dependent effect
SK-OV-3 [36]
  Activity: 40.71%
SK-OV-3 [37]
  Activity: 93.1%
NCI-H460
  Activity: Active
SK-OV-3 [9]
  Activity: Active

## CCOc1ccc(-c2nc(NC(=O)[C@H]3CCCN3)sc2-c2cc(OC)c(OC)c(OC)c2)cc1
[2]
  IC50: 0.51 µM
[5]
  IC50: > 2 µM
HepG2 [7]
  IC50: 0.29 µM

## CCOc1ccc(-c2nc(NC(=O)CN)sc2-c2cc(OC)c(OC)c(OC)c2)cc1.Cl
[1]
  inhibition in vivo at 20 mg/kg: 51.1%
[2]
  IC50: 0.2 µM
[3]
  solubility: > 10000 µM
Serum [4]
  Drug degradation: 17.43%
[5]
  IC50: 0.21 µM
Serum [6]
  Drug degradation: 25.92%
HepG2 [7]
  IC50: 0.26 µM
[8]
  inhibition in vivo at 10 mg/kg: 17.6%
NCI-H460
  Activity: Active
SK-OV-3 [9]
  Activity: Active

## CCOc1ccc(-c2nc(NC(=O)[C@H](N)CC(C)C)sc2-c2cc(OC)c(OC)c(OC)c2)cc1.Cl
[1]
  inhibition in vivo at 20 mg/kg: 52.6%
[2]
  IC50: 0.09 µM
[3]
  solubility: 554 µM
Serum [4]
  Drug degradation: 70.78%
[5]
  IC50: 0.19 µM
Serum [6]
  Drug degradation: 91.1%
HepG2 [7]
  IC50: 0.14 µM
[8]
  inhibition in vivo at 10 mg/kg: 33.1%
NCI-H460
  Activity: Active
SK-OV-3 [9]
  Activity: Active

## CCOc1ccc(-c2nc(NC(=O)[C@@H](N)CCSC)sc2-c2cc(OC)c(OC)c(OC)c2)cc1
[2]
  IC50: 0.38 µM
[5]
  IC50: > 2 µM
HepG2 [7]
  IC50: 0.52 µM

## CCOc1ccc(-c2nc(NC(=O)C(N)COCc3ccccc3)sc2-c2cc(OC)c(OC)c(OC)c2)cc1.Cl (centres undefined)
[1]
  inhibition in vivo at 20 mg/kg: 44.8%
[2]
  IC50: 0.3 µM
[3]
  solubility: 259 µM
Serum [4]
  Drug degradation: 39.46%
[5]
  IC50: > 2 µM
Serum [6]
  Drug degradation: 42.56%
HepG2 [7]
  IC50: 0.47 µM
NCI-H460
  Activity: Active
